Test results taken from patent US12018021B2 (UCB Biopharma SRL, priority 2018, dated 2024).

Biological target: IgE-Tb / FcεRIα-Y131A-AF488 (Homo sapiens, UniProt P01854)
Experiment: IgE-Tb / FcεRIα-Y131A-AF488 FRET assay (protocol for examples 1 to 233)
Assay type: binding
Conditions: examples 1 to 233: 5 nM IgE-Tb, 25 nM FcεRIα-Y131A-AF488, incubated 2 hours at room temperature; read-out: Y131A FRET IC50 range
Outline: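 TR-FRET displacement with 5 nM IgE-Tb and 25 nM FcεRIα-Y131A-AF488 (final), 10-point 3-fold compound dilutions from typically 10 μM top, 2% DMSO, 2 h at room temperature. Excitation 330 nm, 520/495 nm emission ratio; MIN set with 200 nM unlabelled FcεRIα. IC50 from four-parameter logistic fit of percent inhibition.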

IgE-Tb / FcεRIα-Y131A-AF488, sequence (P01854 1-427 limits assumed, stated change not applied): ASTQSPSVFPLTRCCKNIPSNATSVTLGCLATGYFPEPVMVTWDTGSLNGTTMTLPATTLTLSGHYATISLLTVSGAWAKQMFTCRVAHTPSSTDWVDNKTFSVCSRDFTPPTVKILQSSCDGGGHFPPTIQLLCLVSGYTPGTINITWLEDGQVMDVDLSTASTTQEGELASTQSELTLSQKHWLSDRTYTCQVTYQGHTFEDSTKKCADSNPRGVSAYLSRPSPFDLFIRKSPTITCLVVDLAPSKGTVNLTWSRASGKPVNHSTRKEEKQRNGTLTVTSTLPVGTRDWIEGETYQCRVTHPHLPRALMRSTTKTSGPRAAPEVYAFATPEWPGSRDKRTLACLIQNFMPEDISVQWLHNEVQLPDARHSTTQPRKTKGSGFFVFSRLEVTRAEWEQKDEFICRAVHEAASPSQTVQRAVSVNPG

Cc1cc(Nc2nncn2C2CCc3sc(NC(=O)C4CC4)c(C(=O)NCC(C)(C)F)c3C2)n(C)n1 (centres unmarked) [Example 200, 2-(cyclopropanecarbonylamino)-5-[3-[(2,5-dimethylpyrazol-3-yl)amino]-1,2,4-triazol-4-yl]-N-(2-fluoro-2-methyl-propyl)-4,5,6,7-tetrahydrobenzothiophene-3-carboxamide]
IC50: < 1 µM

O=C(NCC1CC1)c1c(NC(=O)C2CC2)sc2c1CC(N1CCOCC1)CC2 (centres unmarked) [Example 201, 2-(Cyclopropanecarbonylamino)-N-(cyclopropylmethyl)-5-morpholino-4,5,6,7-tetrahydrobenzothiophene-3-carboxamide]
IC50: 1 to 10 µM

CCNc1nnc(C(F)(F)F)n1C1CCc2sc(NC(=O)C3CC3)c(C(=O)NCC3CC3)c2C1 (centres unmarked) [Example 202, 2-(Cyclopropanecarbonylamino)-N-(cyclopropylmethyl)-5-[3-(ethylamino)-5-(trifluoromethyl)-1,2,4-triazol-4-yl]-4,5,6,7-tetrahydrobenzothiophene-3-carboxamide]
IC50: 1 to 10 µM

O=C(NCC1CC1)c1c(NC(=O)C2CC2)sc2c1CC(Nc1nc(=O)cc[nH]1)CC2 (centres unmarked) [Example 203, 2-(Cyclopropanecarbonylamino)-N-(cyclopropylmethyl)-5-[(4-oxo-1H-pyrimidin-2-yl)amino]-4,5,6,7-tetrahydrobenzothiophene-3-carboxamide]
IC50: < 1 µM

CC(C)NS(=O)(=O)NC1CCc2sc(NC(=O)C3CC3)c(C(=O)NCC3CC3)c2C1 (centres unmarked) [Example 204, 2-(Cyclopropanecarbonylamino)-N-(cyclopropylmethyl)-5-(isopropylsulfamoylamino)-4,5,6,7-tetrahydrobenzothiophene-3-carboxamide]
IC50: 1 to 10 µM

N#CN=C(NC1CCc2sc(NC(=O)C3CC3)c(C(=O)NCC3CC3)c2C1)NN1CCOCC1 (centres unmarked) [Example 205, 5-[[N′-Cyano-N-morpholino-carbamimidoyl]amino]-2-(cyclopropanecarbonylamino)-N-(cyclopropylmethyl)-4,5,6,7-tetrahydrobenzothiophene-3-carboxamide]
IC50: 1 to 10 µM

CC(=O)NC1CCc2sc(NC(=O)C3CC3)c(C(=O)NCC3CC3)c2C1 (centres unmarked) [Example 206, 5-Acetamido-2-(cyclopropanecarbonylamino)-N-(cyclopropylmethyl)-4,5,6,7-tetrahydrobenzothiophene-3-carboxamide]
IC50: 1 to 10 µM

CS(=O)(=O)NC1CCc2sc(NC(=O)C3CC3)c(C(=O)NCC3CC3)c2C1 (centres unmarked) [Example 207, 2-(Cyclopropanecarbonylamino)-N-(cyclopropylmethyl)-5-(methanesulfonamido)-4,5,6,7-tetrahydrobenzothiophene-3-carboxamide]
IC50: < 1 µM

CONC(=NC#N)NC1CCc2sc(NC(=O)C3CC3)c(C(=O)NCC3CC3)c2C1 (centres unmarked) [Example 208, 5-[[N′-Cyano-N-methoxy-carbamimidoyl]amino]-2-(cyclopropanecarbonylamino)-N-(cyclopropylmethyl)-4,5,6,7-tetrahydrobenzothiophene-3-carboxamide]
IC50: < 1 µM

COc1ccc(NC(=O)NC2CCc3sc(NC(=O)C4CC4)c(C(=O)NCC(C)C)c3C2)cc1 (centres unmarked) [Example 209, 2-(Cyclopropanecarbonylamino)-N-isobutyl-5-[(4-methoxyphenyl)carbamoylamino]-4,5,6,7-tetrahydrobenzothiophene-3-carboxamide]
IC50: < 1 µM

O=C(NCC1CC1)c1c(NC(=O)C2CC2)sc2c1CC(Nc1nc(=O)cc(C(F)(F)F)[nH]1)CC2 (centres unmarked) [Example 210, 2-(Cyclopropanecarbonylamino)-N-(cyclopropylmethyl)-5-[[4-oxo-6-(trifluoromethyl)-1H-pyrimidin-2-yl]amino]-4,5,6,7-tetrahydrobenzothiophene-3-carboxamide]
IC50: < 1 µM

CC1CCN(C(=O)c2c(NC(=O)C3CC3)sc3c2CC(NS(C)(=O)=O)CC3)C1 (centres unmarked) [Example 211, N-[5-(Methanesulfonamido)-3-(3-methylpyrrolidine-1-carbonyl)-4,5,6,7-tetrahydrobenzothiophen-2-yl]cyclopropanecarboxamide]
IC50: 1 to 10 µM

CCCNC(=O)c1c(NC(=O)C2CC2)sc2c1CC(NC(=O)Nc1ccc(OC(F)(F)F)cc1)CC2 (centres unmarked) [Example 212, 2-(Cyclopropanecarbonylamino)-N-propyl-5-[[4-(trifluoromethoxy)phenyl]carbamoylamino]-4,5,6,7-tetrahydrobenzothiophene-3-carboxamide]
IC50: < 1 µM

CC(C)C(=O)Nc1nncn1[C@H]1CCc2sc(NC(=O)C3CC3)c(C(=O)NCC3CC3)c2C1 [Example 213, (5S)-2-(cyclopropanecarbonylamino)-N-(cyclopropylmethyl)-5-[3-(2-methylpropanoylamino)-1,2,4-triazol-4-yl]-4,5,6,7-tetrahydrobenzothiophene-3-carboxamide]
IC50: < 1 µM

Cc1cc(N(C)c2nncn2[C@H]2CCc3sc(NC(=O)C4CC4)c(C(=O)NCC4CC4)c3C2)n(C)n1 [Example 214, (5S)-2-(cyclopropanecarbonylamino)-N-(cyclopropylmethyl)-5-[3-[(2,5-dimethylpyrazol-3-yl)-methyl-amino]-1,2,4-triazol-4-yl]-4,5,6,7-tetrahydrobenzothiophene-3-carboxamide]
IC50: 1 to 10 µM

Cc1cc(Nc2nncn2[C@H]2CCc3sc(NC(=O)C4CC4)c(S(=O)(=O)NCC4CC4)c3C2)n(C)n1 [Example 215, N-[(5S)-3-(cyclopropylmethylsulfamoyl)-5-[3-[(2,5-dimethylpyrazol-3-yl)amino]-1,2,4-triazol-4-yl]-4,5,6,7-tetrahydrobenzothiophen-2-yl]cyclopropanecarboxamide]
IC50: < 1 µM

Cc1nnc(-c2ncn([C@H]3CCc4sc(NC(=O)C5CC5)c(C(=O)NCC5CC5)c4C3)c2N)o1 [Example 216, (5S)-5-[5-amino-4-(5-methyl-1,3,4-oxadiazol-2-yl)imidazol-1-yl]-2-(cyclopropanecarbonylamino)-N-(cyclopropylmethyl)-4,5,6,7-tetrahydrobenzothiophene-3-carboxamide]
IC50: < 1 µM

Cc1cc(Nc2nncn2[C@H]2CCc3sc(NC(=O)C4CC4)c(C(=O)NCC4CC4)c3C2)[nH]n1 [Example 217, (5S)-2-(cyclopropanecarbonylamino)-N-(cyclopropylmethyl)-5-[3-[(3-methyl-1H-pyrazol-5-yl)amino]-1,2,4-triazol-4-yl]-4,5,6,7-tetrahydrobenzothiophene-3-carboxamide]
IC50: < 1 µM

Cc1nn(C)cc1Nc1nncn1[C@H]1CCc2sc(NC(=O)C3CC3)c(C(=O)NCC3CC3)c2C1 [Example 218, (5S)-2-(cyclopropanecarbonylamino)-N-(cyclopropylmethyl)-5-[3-[(1,3-dimethylpyrazol-4-yl)amino]-1,2,4-triazol-4-yl]-4,5,6,7-tetrahydrobenzothiophene-3-carboxamide]
IC50: < 1 µM

Cn1nc(C2CC2)cc1Nc1nncn1[C@H]1CCc2sc(NC(=O)C3CC3)c(C(=O)NCC3CC3)c2C1 [Example 219, (5S)-2-(cyclopropanecarbonylamino)-N-(cyclopropylmethyl)-5-[3-[(5-cyclopropyl-2-methyl-pyrazol-3-yl)amino]-1,2,4-triazol-4-yl]-4,5,6,7-tetrahydrobenzothiophene-3-carboxamide]
IC50: < 1 µM

CC(C)c1cc(Nc2nncn2[C@H]2CCc3sc(NC(=O)C4CC4)c(C(=O)NCC4CC4)c3C2)n(C)n1 [Example 220, (5S)-2-(cyclopropanecarbonylamino)-N-(cyclopropylmethyl)-5-[3-[(5-isopropyl-2-methyl-pyrazol-3-yl)amino]-1,2,4-triazol-4-yl]-4,5,6,7-tetrahydrobenzothiophene-3-carboxamide]
IC50: < 1 µM

Cn1nc(C(F)(F)F)cc1Nc1nncn1[C@H]1CCc2sc(NC(=O)C3CC3)c(C(=O)NCC3CC3)c2C1 [Example 221, (5S)-2-(cyclopropanecarbonylamino)-N-(cyclopropylmethyl)-5-[3-[[2-methyl-5-(trifluoromethyl)pyrazol-3-yl]amino]-1,2,4-triazol-4-yl]-4,5,6,7-tetrahydrobenzothiophene-3-carboxamide]
IC50: < 1 µM

Cc1cc(Nc2nncn2[C@H]2CCc3sc(NC(=O)C4CC4)c(C(=O)NCC4CC4)c3C2)n(C(C)C)n1 [Example 222, (5S)-2-(cyclopropanecarbonylamino)-N-(cyclopropylmethyl)-5-[3-[(2-isopropyl-5-methyl-pyrazol-3-yl)amino]-1,2,4-triazol-4-yl]-4,5,6,7-tetrahydrobenzothiophene-3-carboxamide]
IC50: < 1 µM

Cc1cc(Nc2nncn2[C@H]2CCc3sc(NC(=O)C4CC4)c(C(=O)NCC4CC4)c3C2)n(C2CCOC2)n1 (stereo partly drawn) [Example 223, (5S)-2-(cyclopropanecarbonylamino)-N-(cyclopropylmethyl)-5-[3-[(5-methyl-2-tetrahydrofuran-3-yl-pyrazol-3-yl)amino]-1,2,4-triazol-4-yl]-4,5,6,7-tetrahydrobenzothiophene-3-carboxamide]
IC50: < 1 µM

Cn1nccc1Nc1nncn1[C@H]1CCc2sc(NC(=O)C3CC3)c(C(=O)NCC3CC3)c2C1 [Example 224, (5S)-2-(cyclopropanecarbonylamino)-N-(cyclopropylmethyl)-5-[3-[(2-methylpyrazol-3-yl)amino]-1,2,4-triazol-4-yl]-4,5,6,7-tetrahydrobenzothiophene-3-carboxamide]
IC50: < 1 µM

CCn1nc(C)cc1Nc1nncn1[C@H]1CCc2sc(NC(=O)C3CC3)c(C(=O)NCC3CC3)c2C1 [Example 225, (5S)-2-(cyclopropanecarbonylamino)-N-(cyclopropylmethyl)-5-[3-[(2-ethyl-5-methyl-pyrazol-3-yl)amino]-1,2,4-triazol-4-yl]-4,5,6,7-tetrahydrobenzothiophene-3-carboxamide]
IC50: < 1 µM
